Results published in ChEMBL document CHEMBL1133329, “N-acyl phenylalanine analogues as potent small molecule VLA-4 antagonists” (Bioorg Med Chem Lett, 2000).
pIC50: −log10 of the molar value.

What was measured:
Format in all cases: cell-based
Integrin alpha-4/beta-1 [1] = molecular target: T1, Integrin alpha-4/beta-1 (Homo sapiens, UniProt P05556+P13612); test: Antagonistic activity against VLA-4 (derived from ramos cells) binding to recombinant human VCAM
Integrin alpha-4/beta-1 [2] = molecular target: T1, Integrin alpha-4/beta-1; test: Inhibition of recombinant human VCAM binding to VLA-4 of Ramos cells at 10 uM
Integrin alpha-4/beta-1 [3] = molecular target: T1, Integrin alpha-4/beta-1; test: Inhibition of CS-1 peptide binding to VLA-4 expressed in Ramos cells

T1 sequence (P05556 whole entry): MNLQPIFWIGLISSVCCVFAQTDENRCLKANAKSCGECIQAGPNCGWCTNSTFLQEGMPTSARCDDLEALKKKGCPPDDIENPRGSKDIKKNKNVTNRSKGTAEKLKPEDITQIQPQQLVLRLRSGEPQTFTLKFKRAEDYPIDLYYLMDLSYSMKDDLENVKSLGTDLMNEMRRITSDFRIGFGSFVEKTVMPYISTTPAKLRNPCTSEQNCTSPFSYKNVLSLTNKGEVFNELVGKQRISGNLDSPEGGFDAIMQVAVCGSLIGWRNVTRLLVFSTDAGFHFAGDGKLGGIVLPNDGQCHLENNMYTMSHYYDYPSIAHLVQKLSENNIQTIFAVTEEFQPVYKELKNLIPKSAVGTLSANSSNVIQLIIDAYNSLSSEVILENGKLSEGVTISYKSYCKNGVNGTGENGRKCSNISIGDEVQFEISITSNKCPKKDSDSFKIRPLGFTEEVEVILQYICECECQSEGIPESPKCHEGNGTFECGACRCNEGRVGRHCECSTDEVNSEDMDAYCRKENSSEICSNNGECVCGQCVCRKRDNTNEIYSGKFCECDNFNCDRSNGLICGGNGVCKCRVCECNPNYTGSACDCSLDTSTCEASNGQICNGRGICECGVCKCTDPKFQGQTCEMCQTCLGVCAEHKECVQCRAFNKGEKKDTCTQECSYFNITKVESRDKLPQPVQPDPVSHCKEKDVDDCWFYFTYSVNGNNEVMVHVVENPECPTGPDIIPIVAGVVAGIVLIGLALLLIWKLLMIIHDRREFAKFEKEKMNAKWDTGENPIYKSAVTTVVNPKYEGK
T1 sequence (P13612 whole entry): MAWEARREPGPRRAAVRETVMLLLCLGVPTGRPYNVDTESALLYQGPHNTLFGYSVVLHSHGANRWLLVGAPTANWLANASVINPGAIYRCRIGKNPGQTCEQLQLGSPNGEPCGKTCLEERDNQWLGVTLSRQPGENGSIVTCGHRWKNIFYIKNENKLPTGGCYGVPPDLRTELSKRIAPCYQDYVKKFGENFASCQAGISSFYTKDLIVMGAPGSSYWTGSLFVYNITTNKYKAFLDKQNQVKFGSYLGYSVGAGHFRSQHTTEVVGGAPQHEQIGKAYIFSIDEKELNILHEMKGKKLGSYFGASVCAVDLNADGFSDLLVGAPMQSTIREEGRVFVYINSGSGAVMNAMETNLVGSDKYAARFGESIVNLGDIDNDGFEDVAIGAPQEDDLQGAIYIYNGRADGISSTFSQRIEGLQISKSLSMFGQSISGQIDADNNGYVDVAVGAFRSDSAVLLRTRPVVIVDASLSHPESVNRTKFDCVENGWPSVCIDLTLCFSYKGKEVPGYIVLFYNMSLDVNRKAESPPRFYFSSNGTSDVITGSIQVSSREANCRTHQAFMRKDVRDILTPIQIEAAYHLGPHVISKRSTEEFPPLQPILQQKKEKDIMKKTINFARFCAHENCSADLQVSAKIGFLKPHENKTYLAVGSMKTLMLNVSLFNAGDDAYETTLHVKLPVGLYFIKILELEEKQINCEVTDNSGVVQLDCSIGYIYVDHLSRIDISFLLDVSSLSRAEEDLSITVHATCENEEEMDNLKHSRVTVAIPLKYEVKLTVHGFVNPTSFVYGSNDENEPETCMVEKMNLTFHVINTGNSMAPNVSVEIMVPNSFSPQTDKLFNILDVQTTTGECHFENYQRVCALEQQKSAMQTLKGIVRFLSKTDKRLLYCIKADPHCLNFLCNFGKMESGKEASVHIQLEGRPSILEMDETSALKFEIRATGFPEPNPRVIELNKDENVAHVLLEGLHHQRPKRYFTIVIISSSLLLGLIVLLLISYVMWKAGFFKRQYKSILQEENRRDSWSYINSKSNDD

Row | Structure (SMILES) | pIC50 (Integrin alpha-4/beta-1 [1]) | inhibition (Integrin alpha-4/beta-1 [2]) [%] | pIC50 (Integrin alpha-4/beta-1 [3])
1 | CCCCCOc1ccc(C[C@H](NC(=O)Cc2cccc(N)c2)C(=O)O)cc1 | 5.35 |  | 
2 | CCCCCOc1ccc(C[C@H](NC(=O)C2CC(=O)N(C)C2c2cccnc2)C(=O)O)cc1 (stereo in doubt; 3) [listing 1 of 2 here] | 5.77 |  | 
3 | CCCCCOc1ccc(C[C@H](NC(=O)c2cccnc2)C(=O)O)cc1 | 5.42 | 87 | 
4 | CCCCCOc1ccc(C[C@H](NC(=O)C2CC(=O)N(C)C2c2cccnc2)C(=O)O)cc1 (stereo in doubt; 22) [listing 1 of 2 here] | 6.06 |  | 
5 | CCCCCOc1ccc(C[C@H](NC(=O)c2c3ccccc3nc3ccccc23)C(=O)O)cc1 | 6.23 | 92 | 
6 | CC(C)(C)OC(=O)N1CCC[C@H](CC(=O)N[C@@H](Cc2ccc(C#CCCCC(=O)O)cc2)C(=O)O)C1 | 6.19 |  | 
7 | CCCCCCc1ccc(C[C@H](NC(=O)Cc2cccc(NC(=N)N)c2)C(=O)O)cc1 | 5.15 |  | 
8 | CCCCCOc1ccc(C[C@H](NC(=O)C2CC(=O)N(C)C2c2cccnc2)C(=O)O)cc1 (stereo in doubt; 22) [listing 2 of 2 here] |  | 90 | 
9 | CCCCCOc1ccc(C[C@H](NC(=O)C2CC(=O)N(C)C2c2cccnc2)C(=O)O)cc1 (stereo in doubt; 3) [listing 2 of 2 here] |  | 81 | 

Further lines, results first:

Row | pIC50 (Integrin alpha-4/beta-1 [1]) | inhibition (Integrin alpha-4/beta-1 [2]) [%] | pIC50 (Integrin alpha-4/beta-1 [3]) | Structure (SMILES)
10 | 7.70 |  |  | O=C(O)CCCC#Cc1ccc(C[C@H](NC(=O)[C@@H]2CCC(=O)N2Cc2ccccc2)C(=O)O)cc1
11 | 6.68 |  |  | CCCCCOc1ccc(C[C@H](NC(=O)C2(C)CC2(Cl)Cl)C(=O)O)cc1 (stereo not given in full)
12 | 7.22 |  |  | CCCCCOc1ccc(C[C@H](NC(=O)/C(=N/OC)c2csc(N)n2)C(=O)O)cc1
13 | 6.50 | 94 |  | COC(=O)CCCC#Cc1ccc(C[C@H](NC(=O)c2ccc(S(N)(=O)=O)cc2)C(=O)O)cc1
14 | 6.87 | 99 |  | CO/N=C(\C(=O)N[C@@H](Cc1ccc(C#CCCCC(=O)OC)cc1)C(=O)O)c1csc(N)n1
15 | 6.95 |  | 5.38 | CCCCCOc1ccc(C[C@H](NC(=O)[C@@H]2CSCN2C(C)=O)C(=O)O)cc1
16 | 6.61 |  |  | CCCCCOc1ccc(C[C@H](NC(=O)c2c(C)cc(C)cc2C)C(=O)O)cc1
17 | 6.73 | 80 |  | CC1(C(=O)N[C@@H](Cc2ccc(C#CCCCC(=O)O)cc2)C(=O)O)CC1(Cl)Cl (stereo not given in full)
18 | 7.34 | 97 |  | CCCCCOc1ccc(C[C@H](NC(=O)[C@@H]2CCC(=O)N2Cc2ccccc2)C(=O)O)cc1
